Legend:
MKN45 and AGS cells [1] = assay: Colony formation assay; format: cell-based; conditions: 10 and 20 µM
Description: Cells (1000 cells/well) were seeded in six‐well plates and provided with fresh culture medium every 3 days. After 14 days of incubation, the medium was removed, and the cells were gently washed three times with room‐temperature PBS. The cells were then fixed with 1 mL of 4% paraformaldehyde per well for 15 min. Next, 1 mL of 0.1% crystal violet solution was added to each well and incubated for 10 min to stain the cells. The crystal violet solution was drained, and the wells were rinsed with running water to remove excess stain, followed by air drying and photography.

METTL10 [2] = system: T1, METTL10; assay: MTase-Glo screening assay, METTL10 with Histone H4 peptide substrate; format: biochemical; conditions: 10 µM
T1 construct: purchased ICE Bioscience Inc
Description: (§1) To identify METTL10 inhibitors, an in‐silico screening was first conducted on an in‐house compound library comprising approximately 6000 structurally diverse molecules. Molecular docking simulations with the METTL10 protein identified 111 candidate compounds for further analysis. The methyltransferase activity of these candidates was assessed using the MTase‐Glo Methyltransferase Assay (Promega, V7601) according to the manufacturer's protocol. Briefly, the candidate compounds were preincubated with His‐METTL10 protein (1 µg) at 37 °C for 1 h in a methylation reaction buffer (50 mM Tris‐HCl (pH 8.0), 20 mM KCl, 5 mM DTT, 4 mM EDTA, and 20 µM SAM), followed by the addition of either the Histone H4 or PIAS3 peptide substrate for an additional 1 h. The reaction was then subjected to MTase‐Glo reagent buffer for 30 min, followed by MTase‐Glo detection buffer for another 30 min. Luminescence was measured using a luminometer (Promega), and IC50 values were calculated using GraphPad Prism 8 software.

[3] = target: other tested methyltransferases; assay: Off-target methyltransferase profiling, panel as a whole; format: biochemical; conditions: all panel enzymes other than METTL10
Description: To evaluate the off‐target effects of LZQ‐02‐023‐01 on methyltransferase activity, a panel of enzymes was assessed using the MTase‐Glo Methyltransferase Assay (Promega), following the manufacturer's instructions. The assay was performed by ICE Bioscience Inc. Briefly, LZQ‐02‐023‐01 was serially diluted 4‐fold in DMSO to generate a 10‐point concentration gradient, and the resulting solutions were dispensed into 384‐well white assay plates using an Echo acoustic liquid handler (Labcyte). Plates were centrifuged at 1000 rpm for 1 min to ensure even compound distribution. Following a 10‐min preincubation at 25 °C, 2 µL of a substrate solution containing S‐adenosylmethionine (SAM) and the specific methyltransferase substrate (Table S7, Supporting Information) was added to each well. After a brief centrifugation, plates were incubated at 25 °C for 180 min to allow the enzymatic methylation reaction to proceed. Subsequently, 1 µL of MTase‐Glo reagent was added, followed by centrifugation and incubation at 25 °C for 45 min. […]
Luminescence signals were directly proportional to methyltransferase activity, were recorded using a microplate reader (BMG LABTECH). Percent inhibition was calculated by normalizing luminescence intensities of compound‐treated wells to DMSO‐treated controls, and IC50 values were calculated using GraphPad Prism 8 software.

[4] = system: gastric tumors of Cldn18-AT mice; assay: Cldn18-AT advanced gastric cancer mouse model; format: in vivo; conditions: 40 mg/kg/day i.p., 28 days
Description: For the subcutaneous tumor model, 5 × 10⁶ MKN45 cells suspended in 100 µL of sterile PBS were injected subcutaneously into the flanks of BALB/c nude mice. When tumor volumes reached approximately 50 mm^3, mice were randomized into three groups (Vehicle control, LZQ‐02‐023‐01 at 20 mg/kg or 40 mg/kg, n = 10 per group). All treatments were administered via intraperitoneal injection once daily for 14 consecutive days. Tumor volumes were measured every 2 days using calipers and calculated using the formula: volume = [length × (width[2])]/2. Mice were sacrificed on day 24 for endpoint analyses. For genetically engineered mouse models (GEMMs), 25‐week‐old K19‐C2mE mice were randomized into Vehicle control (n = 8) and LZQ‐02‐023‐01 treatment (40 mg/kg, n = 8) groups. Both groups received daily intraperitoneal injections for 28 consecutive days. Similarly, 8‐week‐old Cldn18‐AT mice were induced with tamoxifen (100 mg/kg, T5648, Sigma) and, 2 weeks post‐induction, randomized into Vehicle (n = 6) and LZQ‐02‐023‐01 (40 mg/kg, n = 6) treatment groups. Treatments were administered daily via intraperitoneal injection for 28 days.
Paraffin sections were initially placed in an oven at 65 °C for 30 min to melt the paraffin. The slides were then immersed in two consecutive xylene baths for 10 min each to dewax the tissue, followed by hydration through a series of graded ethanol solutions. […]

METTL10 [5] = system: T1, METTL10; assay: In vitro (cell-free) methylation of GST-PIAS3 by His-METTL10, immunoblotting; format: biochemical; conditions: 20 µM or higher; GST-PIAS3 with His-METTL10
Description: (§2) For the in vitro methylation assay, His‐METTL10 (1 µg) was incubated with recombinant human Histone H4 protein (20 ng; Abcam, ab198115) or GST‐PIAS3 (100 ng) of in methylation reaction buffer (50 mM Tris‐HCl (pH 8.0), 20 mM KCl, 5 mM DTT, 4 mM EDTA) containing 20 µM S‐(5′‐adenosyl)‐L‐methionine chloride dihydrochloride (SAM) at 37 °C for 1 h. The reaction was terminated by boiling the samples in SDS‐PAGE loading buffer, and the products were analyzed by immunoblotting.

MKN45 and AGS cells [6] = assay: Cell proliferation, CCK-8 assay; format: cell-based; conditions: 10 and 20 µM
Description: Cell proliferation was assessed using Cell Counting Kit‐8 (CCK‐8; K1018, APExBIO). Briefly, 1000 cells per well were seeded into 96‐well plates, and proliferation was measured at 450 nm on days 0, 1, 3, 5, and 7 using the CCK‐8 assay using a multifunctional microplate reader.

METTL10 [7] = target: T2, METTL10 (Homo sapiens, UniProt Q5JPI9); assay: MTase-Glo in vitro methylation assay, METTL10-mediated PIAS3 methylation; format: biochemical
T2 construct: His; made in house; host or cells: E. coli BL21
Description: as §2, §1

T2 sequence (Q5JPI9 1-291 isoform Q5JPI9-1): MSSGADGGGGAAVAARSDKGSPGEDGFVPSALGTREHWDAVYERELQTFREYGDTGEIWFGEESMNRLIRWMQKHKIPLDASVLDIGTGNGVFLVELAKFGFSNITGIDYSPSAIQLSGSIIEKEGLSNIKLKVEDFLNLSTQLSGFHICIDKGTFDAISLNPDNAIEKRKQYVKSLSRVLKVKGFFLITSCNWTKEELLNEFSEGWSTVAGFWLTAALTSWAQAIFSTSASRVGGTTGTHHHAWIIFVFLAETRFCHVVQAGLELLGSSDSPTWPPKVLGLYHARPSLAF

Cc1ccc(Nc2ncc3c(n2)N(C)C(=O)N(c2cccc(N)c2)C3)cn1 [LZQ-02-023-01, Three‐(3‐aminophenyl)‐1‐methyl‐7‐((6‐methylpyridin‐3‐yl)amino)‐3,4‐dihydropyrimido [4,5‐d] pyrimidin‐2 (1H)‐one]
GC cell proliferation (colony formation) (MKN45 and AGS cells [1]): significantly inhibited
Inhibition of METTL10 activity toward histone H4 (METTL10 [2]): significantly inhibited
IC50 [3]: > 3 µM
Pathologic grade of lesions and proliferation (H&E, Ki-67) [4]: lower pathologic grade lesions and proliferation
Tumor burden and progression [4]: significantly reduced tumor burden and progression
Methylation of PIAS3 in cell-free system (METTL10 [5]): decreased
GC cell proliferation (CCK-8) (MKN45 and AGS cells [6]): significantly inhibited
Structure-activity relationship, rank among structural analogs (METTL10 [7]; METTL10 activity toward GST-PIAS3): most potent inhibitor among its structural analogs
Rank of potency among the 22 hit compounds (METTL10 [7]; METTL10 activity toward PIAS3): strongest potency
IC50 (METTL10 [7]; MTase-Glo, bacteria-purified GST-PIAS3 substrate, read-out: IC50, inhibition of METTL10 activity toward PIAS3): 11.8 µM

Reference: PMC12752606, “METTL10‐Mediated PIAS3 Methylation Links Purine Metabolism to Gastric Cancer Progression” (Advanced Science, 2025)
